According to ChEMBL document CHEMBL1135404, “Identification of a nonsteroidal liver X receptor agonist through parallel array synthesis of tertiary amines” (J Med Chem, 2002):
Calls of active or inactive are those of the source. The calls are words filed in the database; no cut-off is given here.

Columns and labels:
[1] = molecular target: T1, Oxysterols receptor LXR-alpha (Homo sapiens, UniProt Q13133); assay: Ligand-dependent recruitment of steroid receptor co-activator 1 (SRC1) to Liver X receptor-alpha
T1 sequence (Q13133 whole entry): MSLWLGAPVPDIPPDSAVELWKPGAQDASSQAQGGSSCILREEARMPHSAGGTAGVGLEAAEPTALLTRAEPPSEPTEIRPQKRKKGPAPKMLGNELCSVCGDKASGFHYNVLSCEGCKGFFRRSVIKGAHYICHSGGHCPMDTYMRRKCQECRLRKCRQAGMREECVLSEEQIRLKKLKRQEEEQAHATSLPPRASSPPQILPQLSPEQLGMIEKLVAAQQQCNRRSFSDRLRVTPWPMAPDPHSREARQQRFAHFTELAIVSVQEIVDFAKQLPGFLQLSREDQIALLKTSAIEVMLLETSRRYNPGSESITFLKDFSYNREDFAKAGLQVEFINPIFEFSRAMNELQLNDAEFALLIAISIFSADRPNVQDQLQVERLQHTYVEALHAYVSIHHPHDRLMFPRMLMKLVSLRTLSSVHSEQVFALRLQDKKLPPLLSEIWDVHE

[2] = molecular target: T1, Oxysterols receptor LXR-alpha; assay: Effective concentration in LXR alpha-Gal4 receptor gene assay
[3] = molecular target: T2, Oxysterols receptor LXR-alpha (Homo sapiens) (UniProt Q13133)
T2 sequence (whole entry): T1 sequence (Q13133 whole entry)
Description: Relative efficacy compared to 24(S),25-epoxy cholesterol in LXR alpha-Gal4 receptor gene assay

[4] = molecular target: T2, Oxysterols receptor LXR-alpha (Homo sapiens); remark: listed apart in the source
Description: Relative efficacy compared to 24(S),25-epoxy cholesterol in Liver X receptor-alpha ligand-sensing assay

[5] = molecular target: T2, Oxysterols receptor LXR-alpha (Homo sapiens); assay: Effective concentration in LXR alpha-Gal4 receptor gene assay; inactive at 10 uM
[6] = Cmax in mice after 10 mg/kg oral dose; type: ADME, organism-based; design: dose 10 mg/kg, route oral; conditions: mouse, in vivo
[7] = Oral bioavailability after administration of a dose of 10 mg/kg; type: ADME, organism-based; conditions: in vivo
[8] = the half-life (t1/2) in mice after a dose of 10 mg/kg; type: ADME, organism-based; design: dose 10 mg/kg; conditions: mouse, in vivo

SMILES | EC50 [1] | EC50 [2] | RE [3] | RE [4] | IA [5] | Cmax [6] | bioavailability [7] | half-life [8]
COc1ccc(CN(CCCOc2cccc(CC(N)=O)c2)CC(c2ccccc2)c2ccccc2)c(F)c1 | 190 nM | 700 nM | 0.4 | 0.9 |  |  |  | 
NC(=O)Cc1cccc(OCCCN(Cc2ccc(F)c(C(F)(F)F)c2)CC(c2ccccc2)c2ccccc2)c1 | 85 nM | 945 nM | 0.4 | 0.9 |  |  |  | 
COc1ccc(CN(CCCOc2cccc(CC(N)=O)c2)CC(c2ccccc2)c2ccccc2)cc1F | 250 nM | 910 nM | 0.5 | 0.7 |  |  |  | 
NC(=O)Cc1cccc(OCCCN(Cc2cccc(C(F)(F)F)c2)CC(c2ccccc2)c2ccccc2)c1 | 85 nM | 650 nM | 0.3 | 0.7 |  |  |  | 
C[C@H](CC[C@@H]1OC1(C)C)[C@H]1CC[C@H]2[C@@H]3CC=C4C[C@@H](O)CC[C@]4(C)[C@H]3CC[C@]12C [24(S),25-EPOXYCHOLESTEROL] | 95 nM | 3000 nM | 1 | 1 |  |  |  | 
NC(=O)Cc1cccc(OCCCN(Cc2cccc(C(F)(F)F)c2Cl)CC(c2ccccc2)c2ccccc2)c1 | 45 nM | 425 nM | 1.5 | 1.1 |  |  |  | 
COc1ccc(CN(CCCOc2cccc(C(N)=O)c2)CC(c2ccccc2)c2ccccc2)cc1OC | 260 nM |  |  | 0.2 |  |  |  | 
COc1ccc(CN(CCCOc2cccc(CC(N)=O)c2)CC(c2ccccc2)c2ccccc2)c(OC)c1 | 660 nM | 4000 nM | 0.6 | 0.7 |  |  |  | 
COc1ccc(CN(CCCOc2cccc(CC(N)=O)c2)CC(c2ccccc2)c2ccccc2)cc1 | 260 nM |  |  | 0.8 | inactive |  |  | 
O=C(O)Cc1cccc(OCCCN(Cc2cccc(C(F)(F)F)c2Cl)CC(c2ccccc2)c2ccccc2)c1 | 125 nM | 190 nM | 1.7 | 1 |  | 12700 ng/mL | 70% | 2 h
COc1ccc(CN(CCCOc2cccc(CC(=O)O)c2)CC(c2ccccc2)c2ccccc2)cc1 | 860 nM | 8000 nM | 0.9 | 0.8 |  |  |  | 
O=S(=O)(c1ccccc1)N(CC(F)(F)F)c1ccc(C(O)(C(F)(F)F)C(F)(F)F)cc1 |  |  | 2.5 | 1 |  |  |  | 
